Results taken from the supplement of paper PMC13380429.
± gives the standard deviation of the averaged measurements.

How the values were obtained:
Conditions in all cases: 72 h
Calu-3 [1] = assay: relative viability EC50 (midpoint between 100% and the lowest measured viability); higher = less toxic
Vero E6 [2] = assay: as above
U2OS [3] = assay: as above
Caco-2 [4] = assay: as above
HepG2 [5] = assay: as above
Calu-3 [6] = assay: cell viability relative to DMSO; higher = less toxic
Vero E6 [7] = assay: as above
U2OS [8] = assay: as above
Caco-2 [9] = assay: as above
HepG2 [10] = assay: as above
Calu-3 [11] = assay: drug sensitivity score (DSS) for viability; higher = more toxic; extreme values may be limits of the assay
Vero E6 [12] = assay: as above
U2OS [13] = assay: as above
Caco-2 [14] = assay: as above
HepG2 [15] = assay: as above

SMILES	relative viability EC50 (Calu-3 [1]) [µM]	relative viability EC50 (Vero E6 [2]) [µM]	relative viability EC50 (U2OS [3]) [µM]	relative viability EC50 (Caco-2 [4]) [µM]	relative viability EC50 (HepG2 [5]) [µM]	cell viability (Calu-3 [6]; 1 nM) [%]	cell viability (Calu-3 [6]; 10 nM) [%]	cell viability (Calu-3 [6]; 100 nM) [%]	cell viability (Calu-3 [6]; 1000 nM) [%]	cell viability (Calu-3 [6]; 10000 nM) [%]	cell viability (Vero E6 [7]; 1 nM) [%]	cell viability (Vero E6 [7]; 10 nM) [%]	cell viability (Vero E6 [7]; 100 nM) [%]	cell viability (Vero E6 [7]; 1000 nM) [%]	cell viability (Vero E6 [7]; 10000 nM) [%]	cell viability (U2OS [8]; 1 nM) [%]	cell viability (U2OS [8]; 10 nM) [%]	cell viability (U2OS [8]; 100 nM) [%]	cell viability (U2OS [8]; 1000 nM) [%]	cell viability (U2OS [8]; 10000 nM) [%]	cell viability (Caco-2 [9]; 1 nM) [%]	cell viability (Caco-2 [9]; 10 nM) [%]	cell viability (Caco-2 [9]; 100 nM) [%]	cell viability (Caco-2 [9]; 1000 nM) [%]	cell viability (Caco-2 [9]; 10000 nM) [%]	cell viability (HepG2 [10]; 1 nM) [%]	cell viability (HepG2 [10]; 10 nM) [%]	cell viability (HepG2 [10]; 100 nM) [%]	cell viability (HepG2 [10]; 1000 nM) [%]	cell viability (HepG2 [10]; 10000 nM) [%]	drug sensitivity score (Calu-3 [11])	drug sensitivity score (Vero E6 [12])	drug sensitivity score (U2OS [13])	drug sensitivity score (Caco-2 [14])	drug sensitivity score (HepG2 [15])
CC(=O)NCCCOc1ccc(C(=O)N2CCC(N3C(=O)CCc4ccccc43)CC2)cc1	> 10	> 10	> 10	> 10	> 10	81	84.4	77.8	86.9	79	105	92.6	95.6	104	106	98	100	97.3	101	95.5	104	90.1	76	104	88.6	113	92.3	116	112	107	0	0	0	0	0
CC[C@@H](C)N(C)C(=O)c1cc2ccccc2c(-c2ccccc2Cl)n1	> 10	> 10	> 10	> 10	> 10	108	106	93.8	95.8	99.2	99.4	105	100	102	107	102	98.3	102	97.3	103	106	104	95.6	96.4	98.6	92.5	113	89.6	100	107	0	0	0	0	0
CNCCn1c(=O)c2cc(OC)c(OC)cc2c2cnc3cc4c(cc3c21)OCO4	0.313	0.891	1.44	1.04	0.149	95.8	92.9	84.8	46.3	30.2	97.6	94.7	97.9	58.6	24.6	96.1	99.5	97.3	78.9	25.9	95.5	95.9	89.4	58	9	112	92.1	56.8	18.6	-0.3	11.8	9.1	7.3	10	20.8
COc1ccc(C2(O)CCC(N3CC[C@@H](NC(=O)CNC(=O)c4cccc(C(F)(F)F)c4)C3)CC2)cn1 (stereo not given in full)	> 10	> 10	> 10	> 10	> 10	102 ± 13	92.8 ± 6.5	96.3 ± 4.9	97.7 ± 4.2	95.2 ± 9.2	97.7 ± 1.4	97.8 ± 5.8	97.7 ± 1.3	95.8 ± 1.9	97.6 ± 3.8	99.7 ± 2	98.5 ± 1.3	98.6 ± 2.7	99.4 ± 0.14	100 ± 4.2	100 ± 2.3	95.3 ± 5.2	95.3 ± 2.9	100 ± 2.4	94.8 ± 5.4	94.8 ± 12	97.7 ± 1.6	101 ± 8.1	94.8 ± 8.5	102 ± 8.6	0	0	0	0	0
C[S+]([O-])c1ccc(-c2nc(-c3ccc(F)cc3)c(-c3ccncc3)[nH]2)cc1 (stereo not given)	> 10	> 10	> 10	> 10	> 10	106	101	98.2	98.4	101	99	112	97.2	110	92.3	104	102	102	95.5	96.9	111	97	103	95.1	84	104	105	96.1	107	91.8	0	0	0	0.8	0
Cc1[nH]c2ccc(Cl)cc2c1C1=CCNCC1	> 10	> 10	> 10	> 10	> 10	109	106	99.8	103	91.5	98.1	96.4	99.6	96	91.7	96.5	103	95.4	96.5	88.9	95.9	102	99.4	97	81.7	93.2	94.7	97.1	95.3	89.9	0	0	0	0.8	0
Cc1c(C(=O)NC2CCCCC2)sc2nc3ccc(N)cc3n12	> 10	> 10	> 10	> 10	> 10	93.7	109	83.3	97.4	103	99.4	103	96.9	103	107	102	94.6	96.4	98.1	102	105	97	101	103	104	94.1	101	92.8	104	107	0	0	0	0	0
Cc1cc(C)c2c(N)c(C(=O)NCc3ccc(Cl)cc3)sc2n1	> 10	> 10	> 10	> 10	> 10	101	92.2	97	108	96.3	101	91.8	108	90.4	105	98.9	103	99.7	102	105	95.7	91.5	107	89.5	108	102	105	101	91.6	98.5	0	0	0	0	0
Cc1ccc(C(=O)N(CCCN)[C@@H](c2oc3cc(Cl)ccc3c(=O)c2Cc2ccccc2)C(C)C)cc1	2.33	0.169	0.165	0.469	0.0342	98.2	91.5	89.1	90	0.4	99.4	87.5	44.7	42	-0.2	100	74.6	52.7	52	8.2	98.9	78.2	62	66.1	5.6	102	45.1	36.9	34.4	0.1	7.2	19.7	18.1	14.3	27.1
Cc1cnc(Nc2ccc(N3CCN(C)CC3)cc2)nc1Nc1cccc(S(=O)(=O)NC(C)(C)C)c1	1.92	2.41	1.55	1.2	0.8	93	95.1	92.6	86.1	13.8	93	105	94.9	90.9	0.2	92.1	93.7	100	75.3	0.5	96.3	101	98.4	64.3	9.6	96.2	105	97.2	57.9	28.9	7.1	7	9.3	9.7	9
CC(C)Cc1ccc([C@@H](C)C(=O)NCCO)cc1 (racemic) [mabuprofen]	> 10	> 10	> 10	> 10	> 10	106	103	105	99.4	117	102	100	101	97.9	94.7	105	98.9	103	100	100	102	96.4	104	94	96.1	92.7	105	90.8	95.3	96.4	0	0	0	0	0
Ic1cc(-c2ccccc2)ncn1 [4-iodo-6-phenylpyrimidine]	> 10	> 10	> 10	> 10	> 10	100	105	105	87.2	104	105	102	97.7	105	95.5	102	97.2	102	99.1	102	93.8	101	104	97.5	98	100	107	96.8	105	98.8	0	0	0	0	0
O=S(=O)(O)c1ccc(O)cc1 [4-phenolsulfonic-acid]	> 10	> 10	> 10	> 10	> 10	102	103	104	95.1	97.1	100	95.7	92.6	100	94.5	100	104	97	97.6	101	102	101	98.4	103	98.4	104	92.3	116	105	97.8	0	0	0	0	0
CC(C)c1cccc2c1OC(C(C)C)C(=S)N2CC(=O)O (stereo not given) [AD-5467]	> 10	> 10	> 10	> 10	> 10	104	106	92	91.1	107	95.7	102	93.5	99.3	95.1	102	98.5	98.9	96.5	98	91.3	96.9	91.2	91.9	96.4	93.6	97.2	98.5	98	96.6	0	0	0	0	0
